According to PubChem BioAssay (NCI):
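Compound exposure: 48 hours, 5 concentrations, 96-well plates. Definition used: TGI = concentration required for complete inhibition of growth.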

Key:
Experiment in all cases: NCI anticancer screen, dose series, 48 h
HCT-116 colon = system: HCT-116 colon
TK-10 renal = system: TK-10 renal
IGROV1 ovarian = system: IGROV1 ovarian
PC-3 prostate = system: PC-3 prostate
OVCAR-3 ovarian = system: OVCAR-3 ovarian
HOP-92 NSCLC = system: HOP-92 NSCLC
MDA-N = system: MDA-N
SF-539 CNS = system: SF-539 CNS
ACHN renal = system: ACHN renal
OVCAR-8 ovarian = system: OVCAR-8 ovarian
UACC-257 melanoma = system: UACC-257 melanoma
NCI-H522 lung = system: NCI-H522 lung
DU-145 prostate = system: DU-145 prostate
K-562 leukemia = system: K-562 leukemia
NCI-H460 lung = system: NCI-H460 lung
M14 melanoma = system: M14 melanoma
MOLT-4 leukemia = system: MOLT-4 leukemia
RPMI-8226 leukemia = system: RPMI-8226 leukemia
A498 renal = system: A498 renal
UACC-62 melanoma = system: UACC-62 melanoma
HS 578T breast = system: HS 578T breast
SK-MEL-5 melanoma = system: SK-MEL-5 melanoma
UO-31 renal = system: UO-31 renal
HCC-2998 colon = system: HCC-2998 colon
SF-295 CNS = system: SF-295 CNS
SNB-75 CNS = system: SNB-75 CNS
CAKI-1 renal = system: CAKI-1 renal
SN12C renal = system: SN12C renal
MCF7 breast = system: MCF7 breast
SK-MEL-2 melanoma = system: SK-MEL-2 melanoma
OVCAR-5 ovarian = system: OVCAR-5 ovarian
BT-549 breast = system: BT-549 breast
COLO 205 colon = system: COLO 205 colon
HCT-15 colon = system: HCT-15 colon
HL-60(TB) leukemia = system: HL-60(TB) leukemia
A549 NSCLC = system: A549 NSCLC
NCI-H23 lung = system: NCI-H23 lung
786-0 renal = system: 786-0 renal
SW-620 colon = system: SW-620 colon
SK-OV-3 ovarian = system: SK-OV-3 ovarian
SNB-19 CNS = system: SNB-19 CNS
CCRF-CEM leukemia = system: CCRF-CEM leukemia
MDA-MB-435 = system: MDA-MB-435
NCI-H226 lung = system: NCI-H226 lung
HT29 colon = system: HT29 colon
KM12 colon = system: KM12 colon
SK-MEL-28 melanoma = system: SK-MEL-28 melanoma
NCI/ADR-RES ovarian = system: NCI/ADR-RES ovarian
U251 CNS = system: U251 CNS
HOP-62 NSCLC = system: HOP-62 NSCLC
EKVX NSCLC = system: EKVX NSCLC
T-47D breast = system: T-47D breast
SF-268 CNS = system: SF-268 CNS
LOX IMVI melanoma = system: LOX IMVI melanoma
RXF 393 renal = system: RXF 393 renal
SR leukemia = system: SR leukemia
MDA-MB-231 breast = system: MDA-MB-231 breast
OVCAR-4 ovarian = system: OVCAR-4 ovarian

Work on `C=C1C(C2(C)C=CC(=O)OC3(C)COC(=O)CC32)C(OC=O)C(OC(=O)C(O)C(C)CC)C2(C)C(c3ccoc3)CC(OC(C)=O)C12O` (configuration not stated) yielded a TGI (HCT-116 colon) greater than 100 µM, a TGI (TK-10 renal) greater than 100 µM and a TGI (IGROV1 ovarian) greater than 100 µM. It also gave a TGI (PC-3 prostate) greater than 100 µM, a TGI (OVCAR-3 ovarian) greater than 100 µM and a TGI (HOP-92 NSCLC) greater than 100 µM. It also gave a TGI (MDA-N) greater than 100 µM, a TGI (SF-539 CNS) greater than 100 µM and a TGI (ACHN renal) greater than 100 µM. It also gave a TGI (OVCAR-8 ovarian) greater than 100 µM, a TGI (UACC-257 melanoma) greater than 100 µM and a TGI (NCI-H522 lung) greater than 100 µM. The TGI (DU-145 prostate) was greater than 100 µM, the TGI (K-562 leukemia) was greater than 100 µM and the TGI (NCI-H460 lung) was greater than 100 µM. For the same compound, the TGI (M14 melanoma) was greater than 100 µM, the TGI (MOLT-4 leukemia) was greater than 100 µM and the TGI (RPMI-8226 leukemia) was greater than 100 µM. It also gave a TGI (A498 renal) greater than 100 µM, a TGI (UACC-62 melanoma) greater than 100 µM and a TGI (HS 578T breast) greater than 100 µM. It also gave a TGI (SK-MEL-5 melanoma) greater than 100 µM, a TGI (UO-31 renal) greater than 100 µM and a TGI (HCC-2998 colon) greater than 100 µM. It also gave a TGI (SF-295 CNS) greater than 100 µM, a TGI (SNB-75 CNS) greater than 100 µM and a TGI (CAKI-1 renal) greater than 100 µM. The TGI (SN12C renal) was greater than 100 µM, the TGI (MCF7 breast) was greater than 100 µM and the TGI (SK-MEL-2 melanoma) was greater than 100 µM. The TGI (OVCAR-5 ovarian) was greater than 100 µM, the TGI (BT-549 breast) was greater than 100 µM and the TGI (COLO 205 colon) was greater than 100 µM. It also gave a TGI (HCT-15 colon) greater than 100 µM, a TGI (HL-60(TB) leukemia) of 9.41 µM and a TGI (A549 NSCLC) greater than 100 µM. It also gave a TGI (NCI-H23 lung) greater than 100 µM, a TGI (786-0 renal) greater than 100 µM and a TGI (SW-620 colon) greater than 100 µM. For the same compound, the TGI (SK-OV-3 ovarian) was greater than 100 µM, the TGI (SNB-19 CNS) was greater than 100 µM and the TGI (CCRF-CEM leukemia) was greater than 100 µM. The TGI (MDA-MB-435) was greater than 100 µM, the TGI (NCI-H226 lung) was greater than 100 µM and the TGI (HT29 colon) was greater than 100 µM. It also gave a TGI (KM12 colon) greater than 100 µM, a TGI (SK-MEL-28 melanoma) greater than 100 µM and a TGI (NCI/ADR-RES ovarian) greater than 100 µM. For the same compound, the TGI (U251 CNS) was greater than 100 µM, the TGI (HOP-62 NSCLC) was greater than 100 µM and the TGI (EKVX NSCLC) was greater than 100 µM. The TGI (T-47D breast) was greater than 100 µM, the TGI (SF-268 CNS) was greater than 100 µM and the TGI (LOX IMVI melanoma) was 88.2 µM. For the same compound, the TGI (RXF 393 renal) was greater than 100 µM, the TGI (SR leukemia) was greater than 100 µM and the TGI (MDA-MB-231 breast) was greater than 100 µM.
In the case of `COc1ccc(OC)c2sc(N3C(=O)/C(=C/c4ccccc4S)N=C3c3ccccc3)nc12`, the TGI (HCT-116 colon) is reported as 78.2 µM, the TGI (TK-10 renal) is reported as greater than 100 µM and the TGI (IGROV1 ovarian) is reported as greater than 100 µM. It also gave a TGI (PC-3 prostate) of 56.5 µM, a TGI (OVCAR-3 ovarian) greater than 100 µM and a TGI (HOP-92 NSCLC) greater than 100 µM. The TGI (MDA-N) was 49.5 µM, the TGI (SF-539 CNS) was 85.4 µM and the TGI (ACHN renal) was greater than 100 µM. It also gave a TGI (OVCAR-8 ovarian) greater than 100 µM, a TGI (UACC-257 melanoma) greater than 100 µM and a TGI (DU-145 prostate) greater than 100 µM. The TGI (K-562 leukemia) was greater than 100 µM, the TGI (NCI-H460 lung) was greater than 100 µM and the TGI (M14 melanoma) was greater than 100 µM. It also gave a TGI (MOLT-4 leukemia) of 35 µM, a TGI (RPMI-8226 leukemia) of 58.4 µM and a TGI (A498 renal) greater than 100 µM. For the same compound, the TGI (UACC-62 melanoma) was 52.2 µM, the TGI (HS 578T breast) was greater than 100 µM and the TGI (SK-MEL-5 melanoma) was 40.6 µM. The TGI (UO-31 renal) was 77.2 µM, the TGI (HCC-2998 colon) was greater than 100 µM and the TGI (SF-295 CNS) was greater than 100 µM. For the same compound, the TGI (SNB-75 CNS) was 57.2 µM, the TGI (CAKI-1 renal) was greater than 100 µM and the TGI (SN12C renal) was 81.9 µM. It also gave a TGI (MCF7 breast) of 36.5 µM, a TGI (OVCAR-4 ovarian) greater than 100 µM and a TGI (SK-MEL-2 melanoma) of 78.8 µM. The TGI (OVCAR-5 ovarian) was greater than 100 µM, the TGI (BT-549 breast) was greater than 100 µM and the TGI (COLO 205 colon) was greater than 100 µM. The TGI (HCT-15 colon) was greater than 100 µM, the TGI (HL-60(TB) leukemia) was 79.3 µM and the TGI (A549 NSCLC) was greater than 100 µM. For the same compound, the TGI (786-0 renal) was greater than 100 µM, the TGI (SW-620 colon) was greater than 100 µM and the TGI (SK-OV-3 ovarian) was greater than 100 µM. The TGI (SNB-19 CNS) was greater than 100 µM, the TGI (CCRF-CEM leukemia) was 42.5 µM and the TGI (MDA-MB-435) was 52 µM. The TGI (HT29 colon) was greater than 100 µM, the TGI (KM12 colon) was greater than 100 µM and the TGI (SK-MEL-28 melanoma) was greater than 100 µM. For the same compound, the TGI (NCI/ADR-RES ovarian) was greater than 100 µM, the TGI (U251 CNS) was 73.8 µM and the TGI (HOP-62 NSCLC) was greater than 100 µM. The TGI (EKVX NSCLC) was greater than 100 µM, the TGI (T-47D breast) was greater than 100 µM and the TGI (SF-268 CNS) was greater than 100 µM. For the same compound, the TGI (LOX IMVI melanoma) was 60.4 µM, the TGI (RXF 393 renal) was 58.5 µM and the TGI (SR leukemia) was 35.2 µM. The TGI (MDA-MB-231 breast) was greater than 100 µM.
